Data from US9259000B2, “Auxin biosynthesis inhibitor” (Riken, priority 2011, dated 2016).

Assays:
Assay type in all cases: in vivo
Arabidopsis = test: Growth recovery test with IAA, Arabidopsis; details: 8 days
Protocol: Arabidopsis was cultured in a plate vertically set and using ½ MS medium containing 1.5% sucrose, 0.8% agar (0.6% Gelrite in the case of KOK1169), the compound of the present invention and IAA under continuous white light at 22° C. for 8 days. […] In the test, KOK1101 (30 μM), KOK1160 (30 μM), KOK1165 (30 μM), and KOK1169 (100 μM) were studied.

Lettuce = test: Growth test, Lettuce; details: 30 μM, 6 days
Protocol: Lettuce was cultured in a plate vertically set and using ½ MS medium containing 1.5% sucrose, 0.8% agar and KOK1101 (30 μM) under continuous white light at 25° C. for 6 days.

Tobacco = test: Growth test, Tobacco; details: compound 100 μM, 7 days after transfer
Protocol: Tobacco was cultured in a plate vertically set and using ½ MS medium containing 1.5% sucrose and 0.8% agar under continuous white light at 25° C. for 7 days. Thereafter, tobacco was transferred to a plate vertically set and using ½ MS medium containing 1.5% sucrose, 0.8% agar and the compound of the present invention (100 μM) and cultured under continuous white light at 25° C. for 7 days.

Rice (Nipponbare) = test: Growth test, Rice; details: 50 μM, 6th day after transfer, vs DMSO control
[1] = system: Physcomitrella patens subsp. patens; test: Growth test, Physcomitrella patens subsp. patens; details: 100 μM, 7th day after transfer, vs DMSO control
Tomato (Momotaro) = test: Growth test, Tomato; details: 100 μM, 6th day after transfer, vs DMSO control
[2] = compound 100 μM + IAA 10 nM, 0.6% Gelrite

COC(=O)[C@H](Cc1ccccc1)ON1C(=O)c2ccccc2C1=O [KOK 1101]
main root elongation, recovery by simultaneous application with IAA (Arabidopsis; compound 30 μM + IAA 10 nM): recovered | growth of an aerial part, recovery by simultaneous application with IAA (Arabidopsis; compound 30 μM + IAA 100 nM): recovered | growth of the aerial part (Lettuce): Apparent growth inhibition | main root elongation (underground part) (Lettuce): promotion | root hair formation (underground part) (Lettuce): inhibition

COC(=O)[C@H](Cc1cccc2ccccc12)ON1C(=O)c2ccccc2C1=O [KOK 1160]
growth of an aerial part, recovery by simultaneous application with IAA (Arabidopsis; compound 30 μM + IAA 10 nM): recovered | main root elongation, recovery by simultaneous application with IAA (Arabidopsis; compound 30 μM + IAA 10 nM): recovered

COC(=O)[C@H](Cc1ccc2ccccc2c1)ON1C(=O)c2ccccc2C1=O [KOK 1165]
growth of an aerial part, recovery by simultaneous application with IAA (Arabidopsis; compound 30 μM + IAA 10 nM): recovered | main root elongation, recovery by simultaneous application with IAA (Arabidopsis; compound 30 μM + IAA 10 nM): recovered

NO[C@@H](Cc1cccc2ccccc12)C(=O)O [KOK 1167]
Note (morphology) (Tobacco): Auxin-excess like morphology

COC(=O)[C@H](Cc1ccc2ccccc2c1)ON [KOK 1168]
growth of seedling (Rice (Nipponbare)): remarkably inhibited | differentiation into forage [1]: inhibited | growth of protonemata [1]: remarkably inhibited | growth of seedling (Tomato (Momotaro)): remarkably inhibited

NO[C@@H](Cc1ccc2ccccc2c1)C(=O)O [KOK 1169]
growth of an aerial part, recovery by simultaneous application with IAA (Arabidopsis; [2]): recovered | main root elongation, recovery by simultaneous application with IAA (Arabidopsis; [2]): recovered

NOC(Cc1cccc(Cl)c1)C(=O)O (centres unmarked) [KOK 1187]
Note (morphology) (Tobacco): Auxin-excess like morphology
